Assay results published in the Kinase Knowledgebase extract (Sharma et al. 2016).

How the values were obtained:
[1] = target: PIK3CG (human) (UniProt P48736); experiment: Enzyme Assay
[2] = target: PIK3CD (Human) (UniProt O00329); experiment: Enzyme Assay
[3] = target: PIK3CB (Human) (UniProt P42338); experiment: Enzyme Assay
[4] = target: PIK3CA (human) (UniProt P42336); experiment: Enzyme Assay
[5] = target: PIK3CD (Human) (UniProt O00329); experiment: Cell-Based Assay; details: b cells

Sequence of PIK3CD (Human) (O00329 whole entry, looked up): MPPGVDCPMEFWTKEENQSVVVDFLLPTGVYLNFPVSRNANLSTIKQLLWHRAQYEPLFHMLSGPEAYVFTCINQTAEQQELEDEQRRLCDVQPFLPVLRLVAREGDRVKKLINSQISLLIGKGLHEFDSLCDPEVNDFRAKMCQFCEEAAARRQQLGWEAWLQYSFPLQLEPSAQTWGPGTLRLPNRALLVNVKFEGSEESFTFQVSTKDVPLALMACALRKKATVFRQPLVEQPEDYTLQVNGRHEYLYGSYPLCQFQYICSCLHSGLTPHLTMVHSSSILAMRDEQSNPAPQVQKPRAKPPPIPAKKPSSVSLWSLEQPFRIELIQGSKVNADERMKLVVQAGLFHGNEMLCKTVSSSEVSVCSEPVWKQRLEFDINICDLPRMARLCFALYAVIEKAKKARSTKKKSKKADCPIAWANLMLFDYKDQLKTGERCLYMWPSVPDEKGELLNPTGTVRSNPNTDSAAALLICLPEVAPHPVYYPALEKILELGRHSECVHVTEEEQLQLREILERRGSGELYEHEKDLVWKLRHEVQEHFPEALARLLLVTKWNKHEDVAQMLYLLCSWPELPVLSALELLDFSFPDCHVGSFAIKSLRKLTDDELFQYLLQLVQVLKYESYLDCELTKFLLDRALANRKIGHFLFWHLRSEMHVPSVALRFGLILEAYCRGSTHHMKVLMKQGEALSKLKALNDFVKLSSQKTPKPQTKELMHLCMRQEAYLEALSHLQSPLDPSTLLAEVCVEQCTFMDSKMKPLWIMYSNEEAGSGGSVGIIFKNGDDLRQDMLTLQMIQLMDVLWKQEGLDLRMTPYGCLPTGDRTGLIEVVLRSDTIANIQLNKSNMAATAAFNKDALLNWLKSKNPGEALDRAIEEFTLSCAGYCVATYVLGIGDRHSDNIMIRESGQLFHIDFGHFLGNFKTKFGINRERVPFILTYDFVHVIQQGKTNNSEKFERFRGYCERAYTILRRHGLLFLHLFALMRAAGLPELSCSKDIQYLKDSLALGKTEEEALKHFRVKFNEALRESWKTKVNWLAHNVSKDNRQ
Sequence of PIK3CA (human) (P42336 whole entry, looked up): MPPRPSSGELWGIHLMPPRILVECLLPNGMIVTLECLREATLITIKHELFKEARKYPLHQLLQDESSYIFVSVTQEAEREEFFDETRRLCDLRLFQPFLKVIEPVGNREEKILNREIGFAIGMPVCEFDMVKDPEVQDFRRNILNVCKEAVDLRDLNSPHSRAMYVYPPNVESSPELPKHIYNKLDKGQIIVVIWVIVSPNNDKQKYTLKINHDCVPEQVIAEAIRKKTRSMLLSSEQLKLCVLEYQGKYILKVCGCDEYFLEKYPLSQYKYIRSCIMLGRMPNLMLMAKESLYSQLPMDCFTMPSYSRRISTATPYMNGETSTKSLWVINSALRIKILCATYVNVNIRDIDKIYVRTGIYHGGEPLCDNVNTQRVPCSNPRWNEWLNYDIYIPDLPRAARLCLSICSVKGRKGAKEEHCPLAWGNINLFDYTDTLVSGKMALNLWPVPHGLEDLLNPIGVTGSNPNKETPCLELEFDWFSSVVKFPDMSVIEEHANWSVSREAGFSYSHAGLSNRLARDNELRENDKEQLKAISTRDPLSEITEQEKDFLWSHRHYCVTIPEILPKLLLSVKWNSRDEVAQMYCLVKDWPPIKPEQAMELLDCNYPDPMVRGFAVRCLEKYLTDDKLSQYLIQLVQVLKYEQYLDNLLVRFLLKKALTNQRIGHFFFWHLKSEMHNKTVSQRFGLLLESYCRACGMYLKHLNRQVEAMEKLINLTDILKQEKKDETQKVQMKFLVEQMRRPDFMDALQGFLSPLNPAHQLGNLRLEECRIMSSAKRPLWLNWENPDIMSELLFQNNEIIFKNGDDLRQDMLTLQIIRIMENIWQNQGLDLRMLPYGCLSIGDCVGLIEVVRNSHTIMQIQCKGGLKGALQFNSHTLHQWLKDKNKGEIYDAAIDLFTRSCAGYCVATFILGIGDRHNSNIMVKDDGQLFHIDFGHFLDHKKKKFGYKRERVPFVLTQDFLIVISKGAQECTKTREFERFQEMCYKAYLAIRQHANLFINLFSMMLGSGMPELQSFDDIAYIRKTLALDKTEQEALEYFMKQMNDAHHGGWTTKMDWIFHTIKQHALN
Sequence of PIK3CG (human) (P48736 whole entry, looked up): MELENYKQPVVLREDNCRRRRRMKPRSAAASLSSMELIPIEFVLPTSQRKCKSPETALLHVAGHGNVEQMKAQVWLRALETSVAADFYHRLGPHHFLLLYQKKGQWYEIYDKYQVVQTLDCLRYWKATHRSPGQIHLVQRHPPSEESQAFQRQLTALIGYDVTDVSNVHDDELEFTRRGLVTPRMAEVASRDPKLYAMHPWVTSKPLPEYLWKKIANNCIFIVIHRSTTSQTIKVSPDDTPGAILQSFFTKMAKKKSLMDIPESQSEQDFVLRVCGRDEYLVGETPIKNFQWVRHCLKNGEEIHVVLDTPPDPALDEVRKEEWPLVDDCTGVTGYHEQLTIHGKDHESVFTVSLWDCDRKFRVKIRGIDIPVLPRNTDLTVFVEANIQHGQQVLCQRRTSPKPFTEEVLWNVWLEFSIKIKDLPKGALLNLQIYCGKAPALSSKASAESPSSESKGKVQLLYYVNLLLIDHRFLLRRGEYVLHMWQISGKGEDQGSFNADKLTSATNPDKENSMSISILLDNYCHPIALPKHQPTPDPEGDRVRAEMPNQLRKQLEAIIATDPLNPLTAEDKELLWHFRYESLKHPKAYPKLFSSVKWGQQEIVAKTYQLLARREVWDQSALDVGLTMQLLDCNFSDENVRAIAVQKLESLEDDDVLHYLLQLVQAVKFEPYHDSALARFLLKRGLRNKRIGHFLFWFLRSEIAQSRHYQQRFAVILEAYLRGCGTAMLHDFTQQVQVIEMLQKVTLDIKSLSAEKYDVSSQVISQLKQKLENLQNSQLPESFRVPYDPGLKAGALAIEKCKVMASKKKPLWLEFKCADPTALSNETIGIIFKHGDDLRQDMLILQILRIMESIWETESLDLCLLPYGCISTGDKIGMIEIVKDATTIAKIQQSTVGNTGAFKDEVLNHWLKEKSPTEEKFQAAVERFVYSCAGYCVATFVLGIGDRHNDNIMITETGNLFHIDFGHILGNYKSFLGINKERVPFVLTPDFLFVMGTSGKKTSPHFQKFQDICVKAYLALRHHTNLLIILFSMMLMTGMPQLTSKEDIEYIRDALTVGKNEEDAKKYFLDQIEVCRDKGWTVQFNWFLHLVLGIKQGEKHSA
Sequence of PIK3CB (Human) (P42338 whole entry, looked up): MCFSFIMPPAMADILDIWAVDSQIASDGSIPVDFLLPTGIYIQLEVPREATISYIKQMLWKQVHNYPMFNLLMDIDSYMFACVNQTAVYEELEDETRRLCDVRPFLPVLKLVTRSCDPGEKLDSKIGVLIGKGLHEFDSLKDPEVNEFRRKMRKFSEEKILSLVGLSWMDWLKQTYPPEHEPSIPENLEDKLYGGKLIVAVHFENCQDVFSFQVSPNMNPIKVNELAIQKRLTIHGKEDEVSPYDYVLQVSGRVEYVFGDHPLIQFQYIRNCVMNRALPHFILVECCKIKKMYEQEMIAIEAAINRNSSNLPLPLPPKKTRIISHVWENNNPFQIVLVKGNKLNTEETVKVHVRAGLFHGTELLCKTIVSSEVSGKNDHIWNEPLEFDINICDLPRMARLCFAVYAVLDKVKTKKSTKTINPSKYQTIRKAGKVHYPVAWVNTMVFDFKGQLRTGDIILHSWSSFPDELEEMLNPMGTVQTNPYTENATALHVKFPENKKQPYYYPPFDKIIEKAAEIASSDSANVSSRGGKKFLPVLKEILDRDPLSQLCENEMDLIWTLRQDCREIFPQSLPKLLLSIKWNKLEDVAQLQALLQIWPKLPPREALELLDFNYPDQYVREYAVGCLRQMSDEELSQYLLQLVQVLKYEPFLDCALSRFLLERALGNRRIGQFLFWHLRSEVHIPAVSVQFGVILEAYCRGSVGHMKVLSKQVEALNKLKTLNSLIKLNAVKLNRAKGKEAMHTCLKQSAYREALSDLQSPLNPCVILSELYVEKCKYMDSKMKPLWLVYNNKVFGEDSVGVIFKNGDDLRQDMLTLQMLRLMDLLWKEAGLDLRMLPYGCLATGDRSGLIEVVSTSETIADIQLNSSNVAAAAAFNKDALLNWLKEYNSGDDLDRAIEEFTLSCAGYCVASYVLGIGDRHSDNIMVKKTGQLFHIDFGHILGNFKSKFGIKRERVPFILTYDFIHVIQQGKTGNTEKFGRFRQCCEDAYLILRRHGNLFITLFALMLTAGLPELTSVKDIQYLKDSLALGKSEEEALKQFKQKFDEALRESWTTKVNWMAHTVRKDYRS

Structure (SMILES) | IC50 [1] [µM] | IC50 [2] [µM] | IC50 [3] [µM] | IC50 [4] [µM] | IC50 [5] [µM]
Cc1ccccc1-c1nc2c(C)cccc2cc1CNc1ncnc2[nH]cnc12 | 0.29 | 0.041 | 2.1 | 37 | 0.051
C[C@H](Nc1ncnc2[nH]cnc12)c1nc2c(Cl)cccc2nc1-c1ccccn1 | 6.6 | 0.059 | 3.6 | 125 | 0.021
C[C@H](Nc1ncnc2[nH]cnc12)c1cc2cccc(F)c2nc1-c1ccccn1 | 1.7 | 0.029 | 2.2 | 125 | 0.014
Cc1nnc2ccc(Cl)cc2c1N1CC(C)(C)c2ccc(N3CCOCC3)cc21 | – | 19 | – | – | –
Cc1ncccc1-c1nc2c(Cl)cccc2cc1[C@H](C)Nc1ncnc2[nH]cnc12 | 0.12 | 0.018 | 1.26 | 13 | 0.0043
C[C@H](Nc1ncnc2[nH]cnc12)c1cc2cccc(C#N)c2nc1-c1ccccn1 | 1.1 | 0.043 | 5.2 | 62 | 0.047
Cc1ncc(F)cc1-c1nc2c(Cl)cccc2cc1[C@H](C)Nc1ncnc2[nH]cnc12 | 0.23 | 0.018 | 1.8 | – | 0.017
C[C@H](Nc1ncnc2[nH]cnc12)c1cc2cccc(F)c2nc1-c1cc(F)ccc1F | 0.56 | 0.018 | 1.9 | 125 | 0.013
Clc1ccccc1-c1nc2c(Cl)cccc2cc1CNc1ncnc2[nH]cnc12 | 0.45 | 0.039 | 3.9 | 46 | 0.025
COc1ccccc1-c1nc2c(C)cccc2cc1CSc1ncnc2[nH]cnc12 | 8.6 | 0.24 | 49 | 53 | 0.84
C[C@H](Nc1ncnc2[nH]cnc12)c1cc2cccc(Cl)c2nc1-c1ccccn1 | 0.15 | 0.066 | 0.67 | 14 | 0.0032
Cc1ccccc1-c1nc2c(C)cccc2cc1CCc1ncnc2[nH]cnc12 | 18 | 3.6 | > 12 | > 125 | –
C[C@H](Nc1ncnc2[nH]cnc12)c1nc2ccc(F)cc2nc1-c1ccccn1 | 0.89 | 0.024 | 4.1 | 22 | 0.018
Cc1ccccc1-c1nc2c(C)cccc2cc1COc1ncnc2[nH]cnc12 | 0.58 | 0.017 | 1.7 | 42 | 0.047
COc1ccccc1-c1nc2c(C)cccc2cc1COc1ncnc2[nH]cnc12 | 2.6 | 0.044 | 2.9 | > 125 | 0.088
Cc1ccccc1-n1c(CNc2nc(N)nc3[nH]cnc23)nc2cccc(C)c2c1=O | 0.14 | 0.025 | 1.8 | 10 | –
Cc1ccccc1-c1nc2c(C)cccc2cc1COc1ncnc2[nH]ccc12 | 0.71 | 0.038 | 3.3 | > 125 | 0.27
Cc1ccccc1-c1nc2c(C)cccc2cc1[C@@H](C)Oc1ncnc2[nH]ccc12 | 22 | 2.6 | 7.6 | > 125 | –
Fc1cccc(-c2nc3c(Cl)cccc3cc2CNc2ncnc3[nH]cnc23)c1 | 0.84 | 0.082 | 3.7 | 52 | 0.028

Compounds with a lower IC50 [2], results first:

IC50 [1] [µM] | IC50 [2] [µM] | IC50 [3] [µM] | IC50 [4] [µM] | IC50 [5] [µM] | Structure (SMILES)
0.44 | 0.0052 | 1.09 | 46 | 0.012 | C[C@H](Nc1ncnc2[nH]cnc12)c1nc2cccc(Cl)c2nc1-c1ccccn1
0.16 | 0.01 | 1.4 | 8.1 | 0.014 | C[C@H](Nc1ncnc2[nH]cnc12)c1nc2cccc(Cl)c2nc1-c1cccc(F)c1
0.25 | 0.01 | 1.1 | – | 0.0052 | C[C@H](Nc1ncnc2[nH]cnc12)c1cc2cccc(F)c2nc1-c1cccc(F)c1
0.61 | 0.016 | 1.9 | 6.9 | – | C[C@H](Nc1ncnc2[nH]cnc12)c1cc2c(F)cc(F)cc2nc1-c1ccccn1
0.77 | 0.015 | 1.1 | 47 | 0.056 | C[C@H](Nc1ncnc2[nH]cnc12)c1cc2cccc(Cl)c2nc1-c1cccc(S(C)(=O)=O)c1
0.067 | 0.0032 | 0.42 | 26 | 0.0036 | C[C@H](Nc1ncnc2[nH]cnc12)c1cc2cccc(Cl)c2nc1-c1ccccc1F
0.83 | 0.016 | 2.9 | 81 | 0.015 | C[C@H](Nc1ncnc2[nH]cnc12)c1cc2cccc(F)c2nc1-c1cccnc1
0.14 | 0.008 | 1.5 | 36 | 0.0036 | C[C@H](Nc1ncnc2[nH]cnc12)c1cc2cccc(Cl)c2nc1-c1ccccc1Cl
0.038 | 0.012 | 0.37 | 5.7 | 0.0024 | C[C@H](Nc1ncnc2[nH]cnc12)c1cc2cccc(Cl)c2nc1-c1cccc(F)c1
0.12 | 0.0066 | 1.3 | 14 | 0.013 | C[C@H](Nc1ncnc2[nH]cnc12)c1cc2ccc(F)cc2nc1-c1cccc(F)c1
0.093 | 0.0071 | 1 | 6.5 | 0.0043 | Cc1ccccc1-c1nc2c(C)cccc2cc1[C@H](C)Oc1ncnc2[nH]ccc12
0.36 | 0.012 | 4.5 | 9 | 0.011 | C[C@H](Nc1ncnc2[nH]cnc12)c1cc2cccc(F)c2nc1-c1cc(F)cc(F)c1
0.34 | 0.011 | 2.1 | 20 | 0.0068 | C[C@H](Nc1ncnc2[nH]cnc12)c1cc2ccc(F)cc2nc1-c1ccccc1S(C)(=O)=O
